The results in this text go back to patent US7615643B2 (SmithKline Beecham Corporation, priority 2006, dated 2009).

Structures can show the parent of a compound that is named as a salt.

T1 sequence (P53350 21-346): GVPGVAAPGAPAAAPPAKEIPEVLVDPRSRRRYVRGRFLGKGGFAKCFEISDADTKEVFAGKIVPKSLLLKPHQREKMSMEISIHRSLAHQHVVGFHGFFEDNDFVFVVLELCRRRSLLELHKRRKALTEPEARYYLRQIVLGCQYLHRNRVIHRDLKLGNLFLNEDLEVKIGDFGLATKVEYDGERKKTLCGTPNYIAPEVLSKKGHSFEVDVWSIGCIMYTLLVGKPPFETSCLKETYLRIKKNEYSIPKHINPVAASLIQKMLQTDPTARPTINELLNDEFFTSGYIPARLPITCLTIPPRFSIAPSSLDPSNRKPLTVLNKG

This assay addresses T1, PLK1 (Homo sapiens, UniProt P53350).
T1 construct: PLK kinase domain (amino acids 21-346 preceded by MKKGHHHHHHD); made in house; host or cells: baculovirus infected T. ni cells
Nature of the assay: Assay for inhibition of PLK1 (SPA kinase assay). It counts as biochemical. The settings on record: 1 μM ATP, 2 nM PLK1 kinase domain, read-out: PLK1 pIC50 (converted). Here is the method:
I. Assay for Inhibition of PLK1
A. Preparation of 6× N-terminal His-tagged PLK Kinase Domain
6× N-terminal His-tagged PLK kinase domain (amino acids 21-346 preceded by MKKGHHHHHHD) SEQ ID: No. 1. was prepared from baculovirus infected T. ni cells under polyhedrin promoter control. All procedures were performed at 4° C. Cells were lysed In 50 mM HEPES, 200 mM NaCl, 50 mM imidazole, 5% glycerol; pH 7.5. The homogenate was centrifuged at 14K rpm in a SLA-1500 rotor for 1 hr and the supernatant filtered through a 1.2 micron filter. The supernatant was loaded onto a Nickel chelating Sepharose (Amersham Pharmacia) column and washed with lysis buffer. Protein was eluted using 20%, 30% and 100% buffer B steps where buffer B was 50 mM HEPES, 200 mM NaCl, 300 mM imidazole, 5% glycerol; pH 7.5. Fractions containing PLK were determined by SDS-PAGE. Fractions containing PLK were diluted five-fold with 50 mM HEPES, 1 mM DTT, 5% glycerol; pH 7.5, then loaded on an SP Sepharose (Amersham Pharmacia) column. After washing the column with 50 mM HEPES, 1 mM DTT, 5% glycerol; pH 7.5, PLK was step eluted with 50 mM HEPES, 1 mM DTT, 500 mM NaCl; 5% glycerol; pH 7.5. PLK was concentrated using a 10 kDa molecular weight cutoff membrane and then loaded onto a Superdex 200 gel filtration (Amersham Pharmacia) column equilibrated in 25 mM HEPES, 1 mM DTT, 500 mM NaCl, 5% glycerol; pH 7.5. Fractions containing PLK were determined by SDS-PAGE. PLK was pooled, aliquoted and stored at −80° C. Samples were quality controlled using mass spectrometry, N-terminal sequencing and amino acid analysis.
B. Enzyme Activity +/− Inhibitors was Determined as Follows:
All measurements were obtained under conditions where signal production increased linearly with time and enzyme. Test compounds were added to white 384-well assay plates (0.1 μL for 10 μL and some 20 μL assays, 1 μL for some 20 μL assays) at variable known concentrations in 100% DMSO. DMSO (1-5% final, as appropriate) and EDTA (65 mM in reaction) were used as controls. Reaction Mix was prepared as follows at 22° C.: • 25 mM HEPES, pH 7.2 • 15 mM MgCl2 • 1 μM ATP • 0.05 μCi/well ^33P-γ ATP (10 Ci/mMol) • 1 μM substrate peptide (Biotin-Ahx-SFNDTLDFD) SEQ ID:No. 2. • 0.15 mg/mL BSA • 1 mM DTT • 2 nM PLK1 kinase domain (added last)
Reaction Mix (10 or 20 μL) was quickly added to each well immediately following addition of enzyme via automated liquid handlers and incubated 1-1.5 h at 22° C. The 20 μL enzymatic reactions were stopped with 50 μL of stop mix (50 mM EDTA, 4.0 mg/mL Streptavidin SPA beads in Standard Dulbecco's PBS (without Mg^2+ and Ca^2+), 50 μM ATP) per well. The 10 μL reactions were stopped with 10 μL of stop mix (50 mM EDTA, 3.0 mg/mL Streptavidin-coupled SPA imaging Beads (“LeadSeeker”) in Standard Dulbecco's PBS (without Mg^2+ and Ca^2+), 50 μM ATP) per well. Plates were sealed with clear plastic seals, spun at 500×g for 1 min or settled overnight, and counted in Packard TopCount for 30 seconds/well (regular SPA) or imaged using a Viewlux imager (LeadSeeker SPA). Signal above background (EDTA controls) was converted to percent Inhibition relative to that obtained in control (DMSO-only) wells.
For the molecule `C[C@@H](Oc1cc(-n2cnc3cc(-c4cnn(C)c4)ccc32)sc1C(N)=O)c1ccc(F)c(OC2CCN(C)CC2)c1Cl` [Example 34, 3-[((1R)-1-{2-Chloro-4-fluoro-3-[(1-methyl-4-piperidinyl)oxy]phenyl}ethyl)oxy]-5-[5-(1-methyl-1H-pyrazol-4-yl)-1H-benzimidazol-1-yl]-2-thiophenecarboxamide trifluoroacetate], the IC50 is under 100 nM.

On to `C[C@@H](Oc1cc(-n2cnc3cc(-c4cnn(C)c4)ccc32)sc1C(N)=O)c1ccc(F)c(OC2CCN(CCF)CC2)c1Cl` [Example 35, 3-{[(1R)-1-(2-Chloro-4-fluoro-3-{[1-(2-fluoroethyl)-4-piperidinyl]oxy}phenyl)ethyl]oxy}-5-[5-(1-methyl-1H-pyrazol-4-yl)-1H-benzimidazol-1-yl]-2-thiophenecarboxamide], for which the IC50 was under 100 nM. Turning to `C[C@@H](Oc1cc(-n2cnc3cc(-c4cnn(C)c4)ccc32)sc1C(N)=O)c1ccc(F)c(OC2CCN(CCS(C)(=O)=O)CC2)c1Cl` [Example 36, 3-({(1R)-1-[2-Chloro-4-fluoro-3-({1-[2-(methylsulfonyl)ethyl]-4-piperidinyl}oxy)phenyl]ethyl}oxy)-5-[5-(1-methyl-1H-pyrazol-4-yl)-1H-benzimidazol-1-yl]-2-thiophenecarboxamide], the IC50 was under 100 nM. With `C[C@@H](Oc1cc(-n2cnc3cc(-c4cc[n+]([O-])cc4)ccc32)sc1C(N)=O)c1cccc(OC2CCNCC2)c1Cl` [Example 37, 3-({(1R)-1-[2-Chloro-3-(4-piperidinyloxy)phenyl]ethyl}oxy)-5-[5-(1-oxido-4-pyridinyl)-1H-benzimidazol-1-yl]-2-thiophenecarboxamide], the IC50 is under 100 nM. As for `C[C@@H](Oc1cc(-n2cnc3cc(-c4cnn(C)c4)ccc32)sc1C(N)=O)c1c(F)ccc(OC2CCN(C)CC2)c1Cl` [Example 38, 3-[((1R)-1-{2-Chloro-6-fluoro-3-[(1-methyl-4-piperidinyl)oxy]phenyl}ethyl)oxy]-5-[5-(1-methyl-1H-pyrazol-4-yl)-1H-benzimidazol-1-yl]-2-thiophenecarboxamide], the figure is under 100 nM; as for `COc1cc2ncn(-c3cc(O[C@H](C)c4cccc(OCC5CCN(C(=O)OC(C)(C)C)CC5)c4Cl)c(C(N)=O)s3)c2cc1OC` [Example 39, 1,1-Dimethylethyl 4-[({3-[(1R)-1-({2-(aminocarbonyl)-5-[5,6-bis(methyloxy)-1H-benzimidazol-1-yl]-3-thienyl}oxy)ethyl]-2-chlorophenyl}oxy)methyl]-1-piperidinecarboxylate], under 100 nM; as for `COc1cc2ncn(-c3cc(O[C@H](C)c4cccc(OCC5CCNCC5)c4Cl)c(C(N)=O)s3)c2cc1OC` [Example 40, 5-[5.6-Bis(methyloxy)-1H-benzimidazol-1-yl]-3-[((1R)-1-{2-chloro-3-[(4-piperidinylmethyl)oxy]phenyl}ethyl)oxy]-2-thiophenecarboxamide], under 100 nM. On to `COc1cc2ncn(-c3cc(O[C@H](C)c4cccc(OCC5CCN(C)CC5)c4Cl)c(C(N)=O)s3)c2cc1OC` [Example 41, 5-[5,6-Bis(methyloxy)-1H-benzimidazol-1-yl]-3-{[(1R)-1-(2-chloro-3-{[(1-methyl-4-piperidinyl)methyl]oxy}phenyl)ethyl]oxy}-2-thiophenecarboxamide], for which the IC50 is under 100 nM. For the molecule `COc1cc2ncn(-c3cc(O[C@H](C)c4cccc(OCCN5CCN(C)CC5)c4Cl)c(C(N)=O)s3)c2cc1OC` [Example 42, 5-[5,6-Bis(methyloxy)-1H-benzimidazol-1-yl]-3-{[(1R)-1-(2-chloro-3-{[2-(4-methyl-1-piperazinyl)ethyl]oxy}phenyl)ethyl]oxy}-2-thiophenecarboxamide], the IC50 is under 100 nM.

For `C[C@@H](Oc1cc(-n2cnc3cc(-c4cnn(C)c4)ccc32)sc1C(N)=O)c1cccc(OCC2CCN(C(=O)OC(C)(C)C)CC2)c1Cl` [Example 43, 1,1-Dimethylethyl 4-[({3-[(1R)-1-({2-(aminocarbonyl)-5-[5-(1-methyl-1H-pyrazol-4-yl)-1H-benzimidazol-1-yl]-3-thienyl}oxy)ethyl]-2-chlorophenyl}oxy)methyl]-1-piperidinecarboxylate], the IC50 is 100 to 1000 nM. As to `C[C@@H](Oc1cc(-n2cnc3cc(-c4cnn(C)c4)ccc32)sc1C(N)=O)c1cccc(OCC2CCNCC2)c1Cl` [Example 44, 3-[((1R)-1-{2-Chloro-3-[(4-piperidinylmethyl)oxy]phenyl}ethyl)oxy]-5-[5-(1-methyl-1H-pyrazol-4-yl)-1H-benzimidazol-1-yl]-2-thiophenecarboxamide trifluoroacetate], the IC50 was under 100 nM. In the case of `C[C@@H](Oc1cc(-n2cnc3cc(-c4cnn(C)c4)ccc32)sc1C(N)=O)c1cccc(OCC2CCN(C)CC2)c1Cl` [Example 45, 3-{[(1R)-1-(2-Chloro--3-{[(1-methyl-4-piperidinyl)methyl]oxy}phenyl)ethyl]oxy}-5-[5-(1-methyl-1H-pyrazol-4-yl)-1H-benzimidazol-1-yl]-2-thiopnenecarboxamide], the IC50 is under 100 nM.

Regarding `C[C@@H](Oc1cc(-n2cnc3cc(-c4cnn(C)c4)ccc32)sc1C(N)=O)c1cccc(OC2CCN(C(=O)OC(C)(C)C)CC2)c1Cl` [Example 46, 1,1-Dimethylethyl 4-({3-[(1R)-1-({2-(aminocarbonyl)-5-[5-(1-methyl-1H-pyrazol-4-yl)-1H-benzimidazol-1-yl]-3-thienyl}oxy)ethyl]-2-chlorophenyl}oxy)-1-piperidinecarboxylate], the IC50 was under 100 nM.

As for `C[C@@H](Oc1cc(-n2cnc3cc(-c4cnn(C)c4)ccc32)sc1C(N)=O)c1cccc(OC2CCNCC2)c1Cl` [Example 47, 3-({(1R)-1-[2-Chloro-3-(4-piperidinyloxy)phenyl]ethyl}oxy)-5-[5-(1-methyl-1H-pyrazol-4-yl)-1H-benzimidazol-1-yl]-2-thiophenecarboxamide], the IC50 was under 100 nM. The figure for `C[C@@H](Oc1cc(-n2cnc3cc(-c4cnn(C)c4)ccc32)sc1C(N)=O)c1cccc(OC2CCN(C)CC2)c1Cl` [Example 48, 3-[((1R)-1-{2-Chloro-3-[(1-methyl-4-piperidinyl)oxy]phenyl}ethyl)oxy]-5-[5-(1-methyl-1H-pyrazol-4-yl)-1H-benzimidazol-1-yl]-2-thiophenecarboxamide] is under 100 nM. Regarding `Cc1cc(-c2ccc3c(c2)ncn3-c2cc(O[C@H](C)c3cccc(OC4CCNCC4)c3Cl)c(C(N)=O)s2)ccn1` [Example 49, 3-({(1R)-1-[2-Chloro-3-(4-piperidinyloxy)phenyl]ethyl}oxy)-5-[5-(2-methyl-4-pyridinyl)-1H-benzimidazol-1-yl]-2-thiophenecarboxamide], the IC50 is under 100 nM.

For the molecule `Cc1cc(-c2ccc3c(c2)ncn3-c2cc(O[C@H](C)c3cccc(OC4CCN(C)CC4)c3Cl)c(C(N)=O)s2)ccn1` [Example 50, 3-[((1R)-1-{2-Chloro-3-[(1-methyl-4-piperidinyl)oxy]phenyl}ethyl)oxy]-5-[5-(2-methyl-4-pyridinyl)-1H-benzimidazol-1-yl]-2-thiophenecarboxamide], the IC50 was under 100 nM. Regarding `C[C@@H](Oc1cc(-n2cnc3cc(Br)ccc32)sc1C(N)=O)c1cccc(OC2CCN(C)CC2)c1Cl` [Example 51, 5-(5-Bromo-1H-benzimidazol-1-yl)-3-[((1R)-1-{2-chloro-3-[(1-methyl-4-piperidinyl)oxy]phenyl}ethyl)oxy]-2-thiophenecarboxamide], the IC50 was under 100 nM. As to `C[C@@H](Oc1cc(-n2cnc3ccc(Cl)cc32)sc1C(N)=O)c1cccc(OC2CCNCC2)c1Cl` [Example 52, 5-(6-Chloro-1H-benzimidazol-1-yl)-3-({(1R)-1-[2-chloro-3-(4-piperidinyloxy)phenyl]ethyl}oxy)-2-thiophenecarboxamide], the IC50 is under 100 nM.
